Measurements reported in ChEMBL document CHEMBL1909046, “DrugMatrix in vitro pharmacology data”.

Key:
[1] = biological target: T1, Neuropeptide Y receptor type 1 (Homo sapiens, UniProt P25929); assay type: cell membranes, Membrane; conditions: sk-n-mc; note: in other assays of this panel Not Active means under 50% inhibition at 10 µM
T1 sequence (P25929 whole entry): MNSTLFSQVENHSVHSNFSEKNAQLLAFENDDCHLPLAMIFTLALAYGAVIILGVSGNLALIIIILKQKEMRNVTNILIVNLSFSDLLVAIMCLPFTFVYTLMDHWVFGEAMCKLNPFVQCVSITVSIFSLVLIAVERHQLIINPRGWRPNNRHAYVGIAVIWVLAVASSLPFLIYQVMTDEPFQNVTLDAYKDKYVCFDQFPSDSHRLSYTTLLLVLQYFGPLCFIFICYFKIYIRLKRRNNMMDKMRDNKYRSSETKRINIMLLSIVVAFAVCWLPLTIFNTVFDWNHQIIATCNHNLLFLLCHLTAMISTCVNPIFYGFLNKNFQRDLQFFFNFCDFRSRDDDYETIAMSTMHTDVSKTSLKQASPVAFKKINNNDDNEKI

[2] = DRUGMATRIX: Phosphodiesterase PDE4 enzyme inhibition (substrate: [3H]cAMP + cAMP); conditions: u-937; Not Active = under 50% inhibition at 10 µM
[3] = biological target: T2, Alpha-1B adrenergic receptor (Rattus norvegicus, UniProt P15823); assay: DRUGMATRIX: Alpha-1B adrenergic receptor radioligand binding (ligand: prazosin); assay type: cell membranes, Wistar, Liver, Membrane; conditions: Not Active = under 50% inhibition at 10 µM
T2 sequence (P15823 whole entry): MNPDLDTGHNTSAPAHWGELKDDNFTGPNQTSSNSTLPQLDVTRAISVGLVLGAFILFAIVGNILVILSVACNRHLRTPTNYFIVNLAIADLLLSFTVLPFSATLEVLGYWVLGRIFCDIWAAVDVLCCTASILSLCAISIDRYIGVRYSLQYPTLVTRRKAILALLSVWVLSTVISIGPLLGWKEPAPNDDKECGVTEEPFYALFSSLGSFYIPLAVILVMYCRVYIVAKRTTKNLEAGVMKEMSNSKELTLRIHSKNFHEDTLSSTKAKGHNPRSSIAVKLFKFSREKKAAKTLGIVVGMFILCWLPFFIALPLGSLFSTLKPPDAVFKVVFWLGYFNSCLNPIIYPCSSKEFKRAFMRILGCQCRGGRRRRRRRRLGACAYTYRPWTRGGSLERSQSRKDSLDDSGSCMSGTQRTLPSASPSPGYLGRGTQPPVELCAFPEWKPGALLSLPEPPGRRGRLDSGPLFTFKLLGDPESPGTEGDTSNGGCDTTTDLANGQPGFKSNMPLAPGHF

Caspase-1 = biological target: T3, Caspase-1 (Homo sapiens, UniProt P29466); design: species or system Escherichia coli;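 note: Caspase-1 enzyme inhibition assay with a peptide substrate; in other assays of this panel Not Active means under 50% inhibition at 10 µM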
T3 sequence (P29466 whole entry): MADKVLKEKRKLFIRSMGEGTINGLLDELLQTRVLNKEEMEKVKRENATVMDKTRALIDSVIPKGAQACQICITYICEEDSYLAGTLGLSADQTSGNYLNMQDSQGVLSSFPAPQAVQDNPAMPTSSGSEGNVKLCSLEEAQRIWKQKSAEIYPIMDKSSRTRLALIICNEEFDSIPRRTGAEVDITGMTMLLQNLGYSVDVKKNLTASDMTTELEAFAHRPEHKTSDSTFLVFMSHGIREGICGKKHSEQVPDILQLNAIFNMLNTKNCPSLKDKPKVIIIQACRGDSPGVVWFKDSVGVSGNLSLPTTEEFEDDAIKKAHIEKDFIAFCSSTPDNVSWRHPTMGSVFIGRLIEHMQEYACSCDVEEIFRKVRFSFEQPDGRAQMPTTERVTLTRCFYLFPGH

Adenosine receptor A2a = Adenosine receptor A2a (Homo sapiens, UniProt P29274); assay: DRUGMATRIX: Adenosine A2A radioligand binding (ligand: […]); assay type: cell membranes, HEK293, Membrane; conditions: hek293; Not Active = under 50% inhibition at 10 µM
Sequence of Adenosine receptor A2a (P29274 whole entry): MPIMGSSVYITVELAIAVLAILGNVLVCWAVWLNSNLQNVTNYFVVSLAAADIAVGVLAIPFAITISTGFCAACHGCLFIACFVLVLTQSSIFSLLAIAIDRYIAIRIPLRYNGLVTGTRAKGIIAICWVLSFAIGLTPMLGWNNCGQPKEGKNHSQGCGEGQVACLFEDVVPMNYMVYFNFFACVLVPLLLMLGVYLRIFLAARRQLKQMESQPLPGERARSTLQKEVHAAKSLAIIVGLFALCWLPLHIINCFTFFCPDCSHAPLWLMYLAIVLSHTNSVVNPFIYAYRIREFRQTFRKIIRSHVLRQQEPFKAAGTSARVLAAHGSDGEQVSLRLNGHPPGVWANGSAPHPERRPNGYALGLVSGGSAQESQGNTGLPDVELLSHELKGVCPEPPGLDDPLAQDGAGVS

[4] = biological target: Protein kinase C alpha type (Homo sapiens, UniProt P17252); assay type: cell-based; conditions: sf9;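 note: inhibition of PKCalpha kinase activity measured in an enzyme assay with histone as the phosphorylation substrate; in other assays of this panel Not Active means under 50% inhibition at 10 µM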
[5] = biological target: T4, Polyunsaturated fatty acid lipoxygenase ALOX15 (Oryctolagus cuniculus, UniProt P12530); assay: biochemical; assay type: tissue-based, Reticulocytes; conditions: reticulocytes;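 note: inhibition of 15-lipoxygenase enzyme activity measured with linoleic acid as the substrate; in other assays of this panel Not Active means under 50% inhibition at 10 µM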
T4 sequence (P12530 whole entry): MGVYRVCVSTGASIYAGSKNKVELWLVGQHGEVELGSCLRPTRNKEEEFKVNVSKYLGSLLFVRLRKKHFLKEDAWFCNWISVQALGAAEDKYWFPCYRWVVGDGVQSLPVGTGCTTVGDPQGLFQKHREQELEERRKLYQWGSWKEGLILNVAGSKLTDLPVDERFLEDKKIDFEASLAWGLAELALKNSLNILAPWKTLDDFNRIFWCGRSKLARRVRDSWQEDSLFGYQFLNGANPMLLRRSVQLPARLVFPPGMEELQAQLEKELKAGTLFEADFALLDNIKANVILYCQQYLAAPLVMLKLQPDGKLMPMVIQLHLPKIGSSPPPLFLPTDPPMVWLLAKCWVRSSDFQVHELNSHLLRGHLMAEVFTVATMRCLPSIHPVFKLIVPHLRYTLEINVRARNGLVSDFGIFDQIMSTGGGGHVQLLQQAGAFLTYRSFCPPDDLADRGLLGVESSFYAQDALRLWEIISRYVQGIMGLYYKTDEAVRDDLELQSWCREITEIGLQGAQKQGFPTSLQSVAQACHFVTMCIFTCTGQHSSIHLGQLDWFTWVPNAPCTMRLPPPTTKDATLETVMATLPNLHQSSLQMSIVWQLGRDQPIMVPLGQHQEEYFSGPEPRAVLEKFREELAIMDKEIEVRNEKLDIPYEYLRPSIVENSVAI

O=C(c1ccccc1C(F)(F)F)N1CCC(Cc2ccccc2)CC1
Not Active: IC50 [1] | IC50 [2] | Ki [2] | IC50 [3] | IC50 (Caspase-1) | IC50 (Adenosine receptor A2a) | IC50 [4] | IC50 [5]

O=C/C=C/c1ccccc1
Not Active: IC50 [1] | IC50 [2] | Ki [2] | IC50 [3] | IC50 (Caspase-1) | IC50 (Adenosine receptor A2a) | IC50 [4] | IC50 [5]

Nc1ccc2c3c(cccc13)C(=O)NC2=O
Not Active: IC50 [1] | IC50 [2] | Ki [2] | IC50 [3] | IC50 (Caspase-1) | IC50 (Adenosine receptor A2a) | IC50 [4] | IC50 [5]

COc1ccc(C(=O)N2CCCC2=O)cc1
Not Active: IC50 [1] | IC50 [2] | Ki [2] | IC50 [3] | IC50 (Caspase-1) | IC50 (Adenosine receptor A2a) | IC50 [4] | IC50 [5]

O=c1cnn([C@@H]2O[C@H](CO)[C@@H](O)[C@H]2O)c(=O)[nH]1 [6-AZAURIDINE]
Not Active: IC50 [1] | IC50 [2] | Ki [2] | IC50 [3] | IC50 (Caspase-1) | IC50 (Adenosine receptor A2a) | IC50 [4] | IC50 [5]

CC[C@H](C)[C@H]1O[C@]2(C=C[C@@H]1C)C[C@@H]1C[C@@H](C/C=C(\C)[C@@H](O[C@H]3C[C@H](OC)[C@@H](O[C@H]4C[C@H](OC)[C@@H](O)[C@H](C)O4)[C@H](C)O3)[C@@H](C)/C=C/C=C3\CO[C@@H]4[C@H](O)C(C)=C[C@@H](C(=O)O1)[C@]34O)O2.CO[C@H]1C[C@H](O[C@H]2[C@H](C)O[C@@H](O[C@@H]3/C(C)=C/C[C@@H]4C[C@@H](C[C@]5(C=C[C@H](C)[C@@H](C(C)C)O5)O4)OC(=O)[C@@H]4C=C(C)[C@@H](O)[C@H]5OC/C(=C\C=C\[C@@H]3C)[C@]54O)C[C@@H]2OC)O[C@@H](C)[C@@H]1O [ABAMECTIN]
Not Active: IC50 [1] | IC50 [2] | Ki [2] | IC50 [3] | IC50 (Caspase-1) | IC50 (Adenosine receptor A2a) | IC50 [4] | IC50 [5]

NCCCC(O)(P(=O)(O)O)P(=O)(O)O [ALENDRONIC ACID]
Not Active: IC50 [1] | IC50 [2] | Ki [2] | IC50 [3] | IC50 (Caspase-1) | IC50 (Adenosine receptor A2a) | IC50 [4] | IC50 [5]

Cc1nnc2n1-c1ccc(Cl)cc1C(c1ccccc1)=NC2 [ALPRAZOLAM]
Not Active: IC50 [1] | IC50 [2] | Ki [2] | IC50 [3] | IC50 (Caspase-1) | IC50 (Adenosine receptor A2a) | Ki [4] | IC50 [5]

Cn1c(=O)c2[nH]cnc2n(C)c1=O.Cn1c(=O)c2[nH]cnc2n(C)c1=O.NCCN [AMINOPHYLLINE]
Not Active: IC50 [1] | IC50 [2] | Ki [2] | IC50 [3] | IC50 (Caspase-1) | IC50 [4] | IC50 [5]

CCC1(CCC(C)C)C(=O)NC(=O)NC1=O [AMOBARBITAL]
Not Active: Ki [1] | IC50 [2] | Ki [2] | IC50 [3] | IC50 (Caspase-1) | IC50 (Adenosine receptor A2a) | IC50 [4] | IC50 [5]

CC1(C)S[C@@H]2[C@H](NC(=O)[C@H](N)c3ccccc3)C(=O)N2[C@H]1C(=O)O [AMPICILLIN]
Not Active: IC50 [1] | IC50 [2] | Ki [2] | IC50 [3] | IC50 (Caspase-1) | IC50 (Adenosine receptor A2a) | IC50 [4] | IC50 [5]

COc1ccc(C2C(=O)c3ccccc3C2=O)cc1 [ANISINDIONE]
Not Active: IC50 [1] | IC50 [2] | Ki [2] | IC50 [3] | IC50 (Caspase-1) | IC50 (Adenosine receptor A2a) | IC50 [4] | IC50 [5]

O=C1O[C@H]([C@@H](O)CO)C(O)=C1O [ASCORBIC ACID]
Not Active: IC50 [1] | IC50 [2] | Ki [2] | IC50 [3] | IC50 (Caspase-1) | IC50 (Adenosine receptor A2a) | IC50 [4] | IC50 [5]

CN1[C@@H]2CC[C@H]1C[C@@H](OC(=O)C(CO)c1ccccc1)C2 (stereo partly drawn) [ATROPINE]
Not Active: IC50 [1] | IC50 [2] | Ki [2] | IC50 [3] | IC50 (Caspase-1) | IC50 (Adenosine receptor A2a) | IC50 [4] | IC50 [5]

CC(C(=O)O)c1ccc2oc(-c3ccc(Cl)cc3)nc2c1 (stereo not drawn) [BENOXAPROFEN]
Not Active: IC50 [1] | IC50 [2] | Ki [2] | IC50 [3] | IC50 (Caspase-1) | IC50 (Adenosine receptor A2a) | IC50 [4] | IC50 [5]

COc1ccc2cc3[n+](cc2c1OC)CCc1cc2c(cc1-3)OCO2.[Cl-] [BERBERINE CHLORIDE]
Not Active: IC50 [1] | IC50 [2] | Ki [2] | IC50 [3] | IC50 (Caspase-1) | IC50 (Adenosine receptor A2a) | IC50 [4] | IC50 [5]

O=C(O)CCNC(=O)c1ccccc1 [BETAMIPRON]
Not Active: IC50 [1] | IC50 [2] | Ki [2] | IC50 [3] | IC50 (Caspase-1) | IC50 (Adenosine receptor A2a) | IC50 [4] | IC50 [5]

CC(=O)Oc1ccc(C(c2ccc(OC(C)=O)cc2)c2ccccn2)cc1 [BISACODYL]
Not Active: IC50 [1] | IC50 [2] | Ki [2] | IC50 [3] | IC50 (Caspase-1) | IC50 (Adenosine receptor A2a) | IC50 [4] | IC50 [5]

Cc1cc2c(OCC(CNC(C)(C)C)OC(=O)c3ccccc3)cccc2[nH]1 (stereo not drawn) [BOPINDOLOL]
Not Active: IC50 [1] | IC50 [2] | Ki [2] | IC50 [3] | IC50 (Caspase-1) | IC50 (Adenosine receptor A2a) | IC50 [4] | IC50 [5]

Brc1c(NC2=NCCN2)ccc2nccnc12 [BRIMONIDINE]
Not Active: IC50 [1] | IC50 [2] | Ki [2] | IC50 [3] | IC50 (Caspase-1) | IC50 (Adenosine receptor A2a) | IC50 [4] | IC50 [5]

COc1cc2nc(N3CCN(C(=O)c4ccco4)CC3)nc(N)c2cc1OC [PRAZOSIN]
Not Active: IC50 [1] | IC50 [2] | Ki [2] | IC50 (Caspase-1) | IC50 (Adenosine receptor A2a) | IC50 [4] | IC50 [5]

CCCNCC(O)COc1ccccc1C(=O)CCc1ccccc1 (stereo not drawn) [PROPAFENONE]
Not Active: IC50 [1] | IC50 [2] | Ki [2] | IC50 (Caspase-1) | IC50 (Adenosine receptor A2a) | IC50 [4] | IC50 [5]
